These results are taken from patent US7875587B2, “Peptide analogues of GIP for treatment of diabetes, insulin resistance and obesity” (UUTECH Limited, priority 2004, dated 2011).

One data set concerns the target T1, DPP IV (Sus scrofa, UniProt P22411).
T1 construct: purchased Sigma (Poole, Dorset, UK)
The data set can be described thus: DPP IV degradation studies of fatty acid derivatised GIP analogues. The data set is classed as in vitro ADME, porcine. The settings on record: pig, isolated enzyme dpp iv, pH 7.8, incubation with DPP IV, read-out: % Intact peptide remaining after time (hours). The method, then:
(§1) DPP IV degradation studies. GIP and fatty acid derivatised GIP analogues were incubated at 37° C. with purified porcine dipeptidylpeptidase IV (5 mU in 50 mmol/l triethanolamine-HCl; pH 7.8) for 0, 2, 4, 8 and 24 hours (final peptide concentration 2 mmol/l). The reactions were subsequently terminated by addition of 10% (v/v) TFA/water and the reaction products separated using HPLC. […] HPLC peak area data were used to calculate % intact peptide remaining throughout the incubation.

For data set [1], the target named is T2, purified porcine dipeptidylpeptidase IV (Sus scrofa, UniProt P22411).
T2 construct: purchased Sigma (Poole, Dorset, UK)
The data set is described as above. The following applies: incubation with DPP IV. It is filed as in vitro ADME. The method, then: as §1

The target in a further data set is T3, human GIP receptor (Homo sapiens, UniProt P48546).
T3 construct: expressed in transfected cells; host or cells: Chinese hamster lung (CHL) fibroblasts, stably transfected
T3 sequence (P48546 22-466): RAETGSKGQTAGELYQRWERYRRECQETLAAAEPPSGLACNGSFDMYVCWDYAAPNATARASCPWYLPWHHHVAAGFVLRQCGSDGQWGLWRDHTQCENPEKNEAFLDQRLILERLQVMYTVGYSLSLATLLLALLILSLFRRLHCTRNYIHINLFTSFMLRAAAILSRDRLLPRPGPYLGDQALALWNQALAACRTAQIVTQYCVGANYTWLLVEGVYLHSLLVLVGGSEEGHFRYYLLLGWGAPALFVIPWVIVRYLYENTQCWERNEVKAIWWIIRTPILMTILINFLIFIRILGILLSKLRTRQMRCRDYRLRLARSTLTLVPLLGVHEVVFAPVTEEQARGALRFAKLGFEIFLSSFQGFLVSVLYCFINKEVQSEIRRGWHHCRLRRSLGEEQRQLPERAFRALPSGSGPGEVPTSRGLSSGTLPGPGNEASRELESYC
The data set can be described thus: Intracellular cyclic AMP production in GIP-receptor transfected CHL fibroblasts. The data set is classed as cell-based. The method, then: In vitro biological activity. […] In brief, CHL cells were seeded into 12-well plates (Nünc, Roskilde, Denmark) at a density of 10^5 cells per well and allowed to grow for 48 hours before being loaded with tritiated adenine (2 μCi; TRK311; Amersham, Buckinghamshire, UK). The cells were then incubated at 37° C. for 6 hours in 1 ml DMEM supplemented with 0.5% (w/v) BSA and subsequently washed twice with HBS buffer (pH 7.4). […] The medium was subsequently removed and the cells lysed with 1 ml of 5% TCA containing 0.1 mmol/l unlabelled cyclic AMP and 0.1 mmol/l unlabelled ATP.

The next data set has as its system BRIN-BD11 cells. Kind of data set: Insulin release from clonal pancreatic BRIN-BD11 cells (Example 6). The data set is classed as cell-based. The settings on record: 5.6 mmol/l glucose, 20 minutes incubation. The method, then: Cells and cell culture. Chinese hamster lung (CHL) fibroblasts stably transfected with the human GIP receptor (Gremlich, S. et al., 1995, Diabetes 44: 1202-1208) were cultured in DMEM tissue culture medium containing 10% (v/v) FBS, 1% (v/v) antibiotics (100 U/ml penicillin, 0.1 mg/ml streptomycin). Clonal pancreatic BRIN-BD11 cells (McClenaghan, N. H. et al., 1996, Diabetes 45: 1132-1140) were cultured using RPMI-1640 culture medium containing 10% (v/v) FBS, 1% (v/v) antibiotics (100 U/ml penicillin, 0.1 mg/ml streptomycin) and 11.1 mmol/l glucose. Cells were maintained at 37° C. in an atmosphere of 5% CO2 and 95% air using an LEEC incubator (Laboratory Technical Engineering, Nottingham, UK).
Insulin-release studies were carried out using clonal pancreatic BRIN-BD11 cells as described previously (O'Harte, F. P. M. et al., 2002, Diabetologia 45: 1281-1291). Briefly, BRIN-BD11 cells were seeded into 24-well plates at a density of 10^5 cells per well, and allowed to attach overnight at 37° C. Acute tests for insulin release were preceded by 40 minutes pre-incubation at 37° C. in 1.0 ml Krebs Ringer bicarbonate buffer supplemented with 1.1 mmol/l glucose. Test incubations were performed in the presence of 5.6 mmol/l glucose with a range of concentrations (10^−13 to 10^−6 mol/l) of GIP and GIP analogues. After 20 minutes incubation, the buffer was removed from each well and aliquots (200 μl) used for measurement of insulin.

For the next data set, the system named is ob/ob mice. Kind of data set: Acute metabolic and dose-response effects with glucose in 18 h fasted ob/ob mice. It is filed as in vivo, mouse. On the procedure: Animals. Obese diabetic (ob/ob) mice derived from the colony maintained at Aston University, UK were used at 12-17 weeks of age. The genetic background and characteristics of the colony used have been outlined in detail elsewhere (Bailey, C. J. et al., 1982, Int. J. Obesity 6:11-21; Gault, V. A. et al., 2003, J. Endocrinol. 176: 133-141). Animals were housed in an air-conditioned room at 22±2° C. with a 12 hours light: 12 hours dark cycle. Drinking water and standard rodent maintenance diet (Trouw Nutrition, Cheshire, UK) were freely available. All test solutions were administered by i.p. injection in a final volume of 5 ml/kg bw. Blood was collected from the cut tip of the tail vein of conscious mice into chilled fluoride/heparin microcentrifuge tubes immediately prior to injection and at the times indicated in the Figures. Plasma was separated using a Beckman microcentrifuge (Beckman Instruments, UK) at 13,000 g for 30 second and stored at −20° C. prior to glucose and insulin determinations. All animal experiments were carried out in accordance with the UK Animals (Scientific Procedures) Act 1986.
Metabolic and dose-response effects of GIP and N-AcGIP(LysPAL) analogues (at 6.25-25 nmoles/kg bw) following glucose administration (18 mmoles/kg bw) were examined in mice fasted for 18 hours. […] Food intake and body weight were recorded daily. Plasma glucose and insulin concentrations were monitored at 2-6 day intervals. At 14 days, groups of animals were used to evaluate intraperitoneal glucose tolerance (18 mmoles/kg) and insulin sensitivity (50 U/kg). In a separate series, two experimental protocols were employed to examine the possibility of GIP receptor desensitization after 14 days treatment. […] At the end of the 14-day treatment period, pancreatic tissues were excised for measurement of insulin following extraction with 5 ml/g ice-cold acid ethanol (75% ethanol, […], 1.5% HCl). Whole blood was taken for determination of glycated hemoglobin.
Biochemical analyses. Plasma glucose was assayed by an automated glucose oxidase procedure (Stevens, J. F., 1971, Clin. Chem. Acta 32:199-201) using a Beckman Glucose Analyser II (Beckman, Galway, Ireland). Plasma insulin was determined by dextran-charcoal RIA as described previously (Flatt, P. R. et al., 1981, Diabetologia 20: 573-577). Glycated hemoglobin was determined using cation-exchange columns (Sigma, Poole, Dorset, UK) with measurement of absorbance (415 nm) in wash and eluting buffers using a VersaMax microplate spectrophotometer (Molecular Devices, Wokingham, Berkshire, UK).
Statistics. Results are expressed as mean±SEM. Data were compared using the unpaired Student's t-test. Where appropriate, data were compared using repeated measures ANOVA or one-way ANOVA, followed by the Student-Newman-Keuls post hoc test. Incremental areas under plasma glucose and insulin curves (AUC) were calculated using a computer-generated program employing the trapezoidal rule (Burington, R. S., 1973, Handbook of Mathematical Tables and Formulae, McGraw-Hill, New York) with baseline subtraction.

T1 sequence (P22411 whole entry): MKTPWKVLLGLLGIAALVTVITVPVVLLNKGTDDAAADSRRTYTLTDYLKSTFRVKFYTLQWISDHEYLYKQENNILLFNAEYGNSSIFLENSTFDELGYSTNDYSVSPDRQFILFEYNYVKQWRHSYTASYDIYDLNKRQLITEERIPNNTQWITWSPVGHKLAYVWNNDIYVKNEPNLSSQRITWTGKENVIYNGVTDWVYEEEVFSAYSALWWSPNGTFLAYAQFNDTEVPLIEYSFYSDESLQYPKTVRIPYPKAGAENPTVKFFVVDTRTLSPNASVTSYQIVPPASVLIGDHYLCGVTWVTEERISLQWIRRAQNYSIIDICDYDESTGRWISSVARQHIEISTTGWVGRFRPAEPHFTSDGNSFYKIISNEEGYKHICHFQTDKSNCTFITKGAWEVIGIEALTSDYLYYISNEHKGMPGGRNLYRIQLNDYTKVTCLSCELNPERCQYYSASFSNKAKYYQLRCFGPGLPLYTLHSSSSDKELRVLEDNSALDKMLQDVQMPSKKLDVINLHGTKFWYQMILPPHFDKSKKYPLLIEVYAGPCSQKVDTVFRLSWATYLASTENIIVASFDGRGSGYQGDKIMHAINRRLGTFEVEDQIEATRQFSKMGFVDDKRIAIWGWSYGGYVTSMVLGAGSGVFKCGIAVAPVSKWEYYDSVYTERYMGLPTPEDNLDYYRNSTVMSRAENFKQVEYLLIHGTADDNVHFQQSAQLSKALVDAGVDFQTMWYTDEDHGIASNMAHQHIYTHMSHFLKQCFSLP
T2 sequence (P22411 whole entry): as above

In the case of `CCCCCCCCCCCCCCCC(=O)NCCCC[C@H](NC(=O)[C@H](CC(=O)O)NC(=O)[C@H](CCSC)NC(=O)[C@H](C)NC(=O)[C@@H](NC(=O)[C@H](CO)NC(=O)[C@H](Cc1ccc(O)cc1)NC(=O)[C@H](CC(=O)O)NC(=O)[C@H](CO)NC(=O)[C@@H](NC(=O)[C@H](Cc1ccccc1)NC(=O)[C@@H](NC(=O)CNC(=O)[C@H](CCC(=O)O)NC(=O)[C@H](C)NC(=O)[C@H](Cc1ccc(O)cc1)NC(C)=O)[C@@H](C)O)[C@@H](C)CC)[C@@H](C)CC)C(=O)N[C@H](C(=O)N[C@@H](Cc1c[nH]cn1)C(=O)N[C@@H](CCC(N)=O)C(=O)N[C@@H](CCC(N)=O)C(=O)N[C@@H](CC(=O)O)C(=O)N[C@@H](Cc1ccccc1)C(=O)N[C@H](C(=O)N[C@@H](CC(N)=O)C(=O)N[C@@H](Cc1c[nH]c2ccccc12)C(=O)N[C@@H](CC(C)C)C(=O)N[C@@H](CC(C)C)C(=O)N[C@@H](C)C(=O)N[C@@H](CCC(N)=O)C(=O)N[C@@H](CCCCN)C(=O)NCC(=O)N[C@@H](CCCCN)C(=O)N[C@@H](CCCCN)C(=O)N[C@@H](CC(N)=O)C(=O)N[C@@H](CC(=O)O)C(=O)N[C@@H](Cc1c[nH]c2ccccc12)C(=O)N[C@@H](CCCCN)C(=O)N[C@@H](Cc1c[nH]cn1)C(=O)N[C@@H](CC(N)=O)C(=O)N[C@H](C(=O)N[C@H](C(=O)N[C@@H](CCC(N)=O)C(=O)O)[C@@H](C)O)[C@@H](C)CC)C(C)C)[C@@H](C)CC` [N-AcGIP(LysPAL^16)], the amount remaining (commonly the share of the starting amount still present when the sample was taken) at 2 h, 2 mmol/l on DPP IV (2 h) came out at 100%. Also, the fraction remaining at 8 h, 2 mmol/l at DPP IV (8 h) stood at 100%. The fraction remaining at 24 h, 2 mmol/l on DPP IV (24 h) came to 100%. The “% Intact peptide remaining after time (hours)” value is recorded as 100% in data set [1] (0 h) and “remained completely intact” in data set [1] (24 h). For the same compound, the EC50 – broadly, the concentration that produces a half-maximal response – on human GIP receptor worked out at 0.0121 µM. Moreover, the “insulin secretion compared to control” value in the data set with BRIN-BD11 cells was “significantly stimulated glucose-induced insulin secretion”. Moreover, the “enhancement of overall glucose-mediated insulin release (AUC) compared to native GIP” value in the data set with ob/ob mice (25 nmoles/kg i.p. with glucose) is recorded as 1.5 fold. Further, in the data set with ob/ob mice (25 nmoles/kg i.p. with glucose), the “overall glucose excursion compared to native GIP” value is “decreased the overall glucose excursion”. The “overall glucose excursion (glucose AUC) compared to glucose alone” value with ob/ob mice (25 nmoles/kg i.p. with glucose 18 mmoles/kg, 0-60 min) is “significantly lowered glucose AUC”.
